Test results: ChEMBL document CHEMBL1130497, “Novel 7-hydroxycoumarin based fluorescent labels” (Bioorg Med Chem Lett, 1997)

Experiment: pKa value was determined
Assay type: physicochemical

| pKa | Compound |
| --- | --- |
| 6.6 | O=C(O)CCCCc1cc(=O)oc2c(CN3CCCCC3)c(O)ccc12 |
| 6.7 | O=C(O)CCCCc1cc(=O)oc2c(CN3CCCC3)c(O)ccc12 |
| 6.6 | CCN(CC)Cc1c(O)ccc2c(CCCCC(=O)O)cc(=O)oc12 |
| 7.8 | O=C(O)CCCCc1cc(=O)oc2cc(O)ccc12 |
